Reference: PubChem BioAssay AID2060620 (Molecular Pharmacology Branch, DTP, NCI, 2025)
“And” between values parts separate entries of the source, which are not always exact repeats. Equal values may be shown once.

Test system: 328373-195-R-J1-PDC complex spheroids, viability % test/control
Test: Anticancer human tumor 328373-195-R-J1-PDC patient-derived head and neck squamous carcinoma cell line growth inhibition [CLK]
Conditions: for viability, T/C: stronger effect = lower value; active = viability on the fitted dose curve at most 10% of control; inactive = the rest
Outline: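 Multi-cell-type spheroids combined patient-derived tumor cells with HUVEC endothelial cells and human mesenchymal stem cells. Paired agents were dosed in half-log steps down from about clinical Cmax, or from 10 microM where Cmax was unknown.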

[1] = curve of first compound, second compound 0.0316 µM
[2] = curve of first compound, second compound 0.1 µM
[3] = curve of first compound, second compound 0.316 µM
[4] = curve of first compound, second compound 1 µM
[5] = curve of first compound, second compound 3.16 µM
[6] = curve of first compound, second compound 10 µM
[7] = second compound 0.0316 µM, first compound 0.0316 µM
[8] = second compound 0.0316 µM, first compound 0.1 µM
[9] = second compound 0.0316 µM, first compound 0.316 µM
[10] = second compound 0.0316 µM, first compound 1 µM
[11] = second compound 0.0316 µM, first compound 3.16 µM
[12] = second compound 0.0316 µM, first compound 10 µM
[13] = second compound 0.1 µM, first compound 0.0316 µM
[14] = second compound 0.1 µM, first compound 0.1 µM
[15] = second compound 0.1 µM, first compound 0.316 µM
[16] = second compound 0.1 µM, first compound 1 µM
[17] = second compound 0.1 µM, first compound 3.16 µM
[18] = second compound 0.1 µM, first compound 10 µM
[19] = second compound 0.316 µM, first compound 0.0316 µM
[20] = second compound 0.316 µM, first compound 0.1 µM
[21] = second compound 0.316 µM, first compound 0.316 µM
[22] = second compound 0.316 µM, first compound 1 µM
[23] = second compound 0.316 µM, first compound 3.16 µM
[24] = second compound 0.316 µM, first compound 10 µM
[25] = second compound 1 µM, first compound 0.0316 µM
[26] = second compound 1 µM, first compound 0.1 µM
[27] = second compound 1 µM, first compound 0.316 µM
[28] = second compound 1 µM, first compound 1 µM
[29] = second compound 1 µM, first compound 3.16 µM
[30] = second compound 1 µM, first compound 10 µM
[31] = second compound 3.16 µM, first compound 0.0316 µM
[32] = second compound 3.16 µM, first compound 0.1 µM
[33] = second compound 3.16 µM, first compound 0.316 µM
[34] = second compound 3.16 µM, first compound 1 µM
[35] = second compound 3.16 µM, first compound 3.16 µM
[36] = second compound 3.16 µM, first compound 10 µM
[37] = second compound 10 µM, first compound 0.0316 µM
[38] = second compound 10 µM, first compound 0.1 µM
[39] = second compound 10 µM, first compound 0.316 µM
[40] = second compound 10 µM, first compound 1 µM
[41] = second compound 10 µM, first compound 3.16 µM
[42] = second compound 10 µM, first compound 10 µM
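Also: spheroids exposed to the agents for 7 days.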

CC(=O)O[C@H]1C(=O)[C@@]2(C)[C@H]([C@H](OC(=O)c3ccccc3)[C@]3(O)C[C@H](OC(=O)[C@H](O)[C@@H](NC(=O)c4ccccc4)c4ccccc4)C(C)=C1C3(C)C)[C@]1(OC(C)=O)CO[C@@H]1C[C@@H]2O + CN1CCN(c2cc(C(=O)Nc3cc4cc(-c5cnn(C)c5)ccc4cn3)ccn2)CC1
< 31.6 nM: IC50 [1] | IC50 [2] | IC50 [3] | IC50 [4] | IC50 [5] | IC50 [6]
active: viability, T/C [7] 7.74% | viability, T/C [8] 4.32% | viability, T/C [9] 7.3% | viability, T/C [10] 5.75% | viability, T/C [11] 9.83% | viability, T/C [12] 12.9% | viability, T/C [13] 2.72% | viability, T/C [14] 2.97% | viability, T/C [15] 8.34% | viability, T/C [16] 5.1% | viability, T/C [17] 7.93% | viability, T/C [18] 9.97% | viability, T/C [19] 3.35% | viability, T/C [20] 5.31% | viability, T/C [21] 5.81% | viability, T/C [22] 5.22% | viability, T/C [23] 5.91% | viability, T/C [24] 10.6% | viability, T/C [25] 0.18% | viability, T/C [26] 0.12% | viability, T/C [27] 0.12% | viability, T/C [28] 0.07% | viability, T/C [29] 0.08% | viability, T/C [30] 0.07% | viability, T/C [31] 2.71% | viability, T/C [32] 0.11% | viability, T/C [33] 0.12% | viability, T/C [34] 0.08% | viability, T/C [35] 0.76% | viability, T/C [36] 2.99% | viability, T/C [37] 1.85% | viability, T/C [38] 1.39% | viability, T/C [39] 0.15% | viability, T/C [40] 0.17% | viability, T/C [41] 2.04% | viability, T/C [42] 2.05%

CC1COCCN1c1cc(C2(S(C)(=N)=O)CC2)nc(-c2ccnc3[nH]ccc23)n1 (stereo not given) + CNC(=O)c1ccc(Nc2nc(OC3CCCC3)c3c(-c4ccc5nc(C)oc5c4)c[nH]c3n2)c(OC)c1
active: viability, T/C [12] 5.59% | viability, T/C [15] 8.26% | viability, T/C [16] 9.68% | viability, T/C [17] 5.72% | viability, T/C [18] 3.41% | viability, T/C [20] 9.55% | viability, T/C [21] 8.53% | viability, T/C [22] 6.94% | viability, T/C [23] 5.01% | viability, T/C [24] 4.53% | viability, T/C [25] 8.51% | viability, T/C [26] 8.26% | viability, T/C [27] 8.32% | viability, T/C [28] 6.7% | viability, T/C [29] 5.13% | viability, T/C [30] 2.61% | viability, T/C [32] 10.7% | viability, T/C [33] 8.57% | viability, T/C [34] 7.75% | viability, T/C [35] 4.82% | viability, T/C [36] 2.48% | viability, T/C [39] 8.76% | viability, T/C [40] 8.59% | viability, T/C [41] 5.88% | viability, T/C [42] 2.34%
< 31.6 nM: IC50 [2] | IC50 [3] | IC50 [4] | IC50 [5] | IC50 [6]
inactive: viability, T/C [7] 64.5% | viability, T/C [8] 54.4% | viability, T/C [9] 45.9% | viability, T/C [10] 39.2% | viability, T/C [11] 18.9% | viability, T/C [13] 13.4% | viability, T/C [14] 10.1% | viability, T/C [19] 9.78% | viability, T/C [31] 10.1% | viability, T/C [37] 12.3% | viability, T/C [38] 10.4%
216 nM: IC50 [1]

CC(C)CC(NC(=O)C(Cc1ccccc1)NC(=O)c1cnccn1)B(O)O (stereo not given)
active: viability, T/C (compound 0.003 µM) 8.65% and 3.9% | viability, T/C (compound 0.00949 µM) 1.43% and 0.2% | viability, T/C (compound 0.03 µM) 1.56% and 0.3% | viability, T/C (compound 0.0949 µM) 0.16% | viability, T/C (compound 0.3 µM) 0.85% and 0.2%
1.76 nM and 1.86 nM: IC50 (curve of compound)
inactive: viability, T/C (compound 0.000949 µM) 97.8% and 115%

O=c1[nH]cc(F)c(=O)[nH]1 + CN1CCN(c2cc(C(=O)Nc3cc4cc(-c5cnn(C)c5)ccc4cn3)ccn2)CC1
active: viability, T/C [22] 7.98% | viability, T/C [23] 6.74% | viability, T/C [24] 5.92% | viability, T/C [25] 0.13% | viability, T/C [26] 4.38% | viability, T/C [27] 0.56% | viability, T/C [28] 0.05% | viability, T/C [29] 2.73% | viability, T/C [30] 0.78% | viability, T/C [31] 0.03% | viability, T/C [32] 3.69% | viability, T/C [33] 4.78% | viability, T/C [34] 0.03% | viability, T/C [35] 0.16% | viability, T/C [36] 0.08% | viability, T/C [37] 0.03% | viability, T/C [38] 0.64% | viability, T/C [39] 2.65% | viability, T/C [40] 0.06% | viability, T/C [41] 4.08% | viability, T/C [42] 1.3%
58.4 nM: IC50 [1]
inactive: viability, T/C [7] 76.7% | viability, T/C [8] 26.6% | viability, T/C [9] 13.9% | viability, T/C [10] 9.49% | viability, T/C [11] 10.6% | viability, T/C [12] 13.6% | viability, T/C [13] 74.7% | viability, T/C [14] 32.6% | viability, T/C [15] 12.5% | viability, T/C [16] 10.6% | viability, T/C [17] 10.2% | viability, T/C [18] 16.8% | viability, T/C [19] 25.9% | viability, T/C [20] 14.3% | viability, T/C [21] 14.6%
62.1 nM: IC50 [2]
< 31.6 nM: IC50 [3] | IC50 [4] | IC50 [5] | IC50 [6]

CCCS(=O)(=O)Nc1ccc(F)c(C(=O)c2c[nH]c3ncc(-c4ccc(Cl)cc4)cc23)c1F + CNC(=O)c1ccc(Nc2nc(OC3CCCC3)c3c(-c4ccc5nc(C)oc5c4)c[nH]c3n2)c(OC)c1
> 10000 nM: IC50 [1]
< 31.6 nM: IC50 [2] | IC50 [3] | IC50 [4] | IC50 [5] | IC50 [6]
inactive: viability, T/C [7] 61.7% | viability, T/C [8] 59.5% | viability, T/C [9] 62.4% | viability, T/C [10] 66.1% | viability, T/C [11] 56.8% | viability, T/C [12] 43.3% | viability, T/C [13] 11.7% | viability, T/C [14] 10.9% | viability, T/C [15] 12% | viability, T/C [16] 15.7% | viability, T/C [17] 13.9% | viability, T/C [18] 15.6% | viability, T/C [19] 10.2% | viability, T/C [20] 11.3% | viability, T/C [21] 11% | viability, T/C [22] 12.2% | viability, T/C [23] 10.6% | viability, T/C [24] 13.5% | viability, T/C [25] 10.9% | viability, T/C [26] 10.5% | viability, T/C [27] 11.3% | viability, T/C [28] 10.7% | viability, T/C [29] 11.1% | viability, T/C [30] 15.2% | viability, T/C [31] 10.8% | viability, T/C [32] 11.3% | viability, T/C [33] 10.3% | viability, T/C [34] 11.4% | viability, T/C [35] 12.7% | viability, T/C [36] 15.8% | viability, T/C [37] 13.8% | viability, T/C [38] 11.1% | viability, T/C [39] 11.2% | viability, T/C [40] 14.1% | viability, T/C [41] 16.6% | viability, T/C [42] 16.4%
